Laboratory results published in US20250099433A1, “COMPOSITION AND METHOD FOR TREATMENT OF GRAM NEGATIVE BACTERIAL INFECTION” (The Research Foundation for the State University of New York, priority 2021, published 2025).
≈ marks a conversion by molar mass, not a printed value. Where “and” joins values, the source holds several entries; their conditions need not be identical. Equal values may be shown once. Entries after “also recorded” stand apart in the source; their conditions may differ. Read-outs that look alike come from different tables or passages of the source.

Tests used:
P. aeruginosa PAO1 [1] = assay: Post-antibiotic effect (PAE) in P. aeruginosa PAO1; details: 37° C.; for PAE (h) 4x: PAO1, 4xMIC for 1 h; for PAE (h) 8x: PAO1, 8xMIC for 1 h; for PAE (h) 16x: PAO1, 16xMIC for 1 h
Experimental: Post-antibiotic effect of the paLpxC inhibitors on wild-type P. aeruginosa. […] The experimental data points are the mean values from triplicate, independent measurements, and the error bars represent the standard deviation from the mean.
After incubating the plates overnight at 37° C., CFUs were enumerated, and the PAE values were calculated using a standard method where the time for the bacteria to recover 1 log post drug washout compared to the control was determined (FIG. 17, Table 6).
Post-antibiotic Effect (PAE). PAEs were determined using P. aeruginosa PAO1. […] The compound was washed out by diluting the culture 1000-fold into fresh CAMH-II medium, and the regrowth of bacteria was monitored by taking 100 μL aliquots each hour and plating serial dilutions on Muller-Hinton agar plates.

[2] = test system: efflux-pump mutant strain (ΔMexABCDXY) (paEP); assay: MIC by microbroth dilution, efflux-pump mutant P. aeruginosa; details: Pseudomonas aeruginosa, read-out: MIC (μM) (paEP)
Text: Bacterial Strains. […] The efflux-pump deficient P. aeruginosa strain (ΔMexABCDXY), N150, was derived from PAO1.
Minimum Inhibitory Concentration (MIC) Measurements.

P. aeruginosa PAO1 [3] = assay: Time-kill assays in P. aeruginosa PAO1; details: PAO1, 4x, 8x and 16xMIC, CAMH media, 37° C.
Experimental: Time-kill assays. […] The experimental data points are the mean values from triplicate, independent measurements, and the error bars represent the standard deviation from the mean.
Time-Kill Assays. […] Cultures were shaken at 37° C. for 6 h, and 100 μL aliquots were taken at each 1 h time interval and plated in serial dilutions in a Mueller-Hinton agar plate.

P. aeruginosa PAO1 [4] = assay: MIC by microbroth dilution, P. aeruginosa PAO1; details: Pseudomonas aeruginosa, PAO1, read-out: MIC (μM) (PAO1)
paLpxC [5] = molecular target: T1, paLpxC (Pseudomonas aeruginosa (strain ATCC 15692 / DSM 22644 / CIP 104116 / JCM 14847 / LMG 12228 / 1C / PRS 101 / PAO1), UniProt P47205); assay: biochemical; assay type: binding; details: for Ki / tR (min) Fluorescence assay: 37° C.; for Ki: fluorescence competition; for tR (min) Fluorescence assay: tR = 1/koff; for koff: read-out: Koff (s^−1); for kon: read-out: Kon (μM^−1s^−1)
T1 sequence (P47205 1-299): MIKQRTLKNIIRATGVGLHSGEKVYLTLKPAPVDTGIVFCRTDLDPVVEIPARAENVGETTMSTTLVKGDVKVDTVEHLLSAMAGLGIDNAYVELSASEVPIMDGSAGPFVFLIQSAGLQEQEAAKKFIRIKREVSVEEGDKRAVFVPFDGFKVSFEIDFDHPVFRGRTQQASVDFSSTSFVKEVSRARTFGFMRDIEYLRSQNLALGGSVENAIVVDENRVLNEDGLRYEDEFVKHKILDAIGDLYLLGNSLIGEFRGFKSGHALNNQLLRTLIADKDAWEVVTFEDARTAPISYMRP

paLpxC [6] = molecular target: T1, paLpxC; assay: Spin column (Penefsky) residence time assay on paLpxC; assay type: binding; details: 37° C.; for tR (min) (Spin column assay): direct displacement; for k (min^−1), spin-column assay: first-order fit
Experimental: FIG. 14. Spin-column assay. A spin-column assay was used to quantify the residence time of inhibitors on paLpxC at 37° C. […] Samples were then subjected to size exclusion chromatography at different times using a Spin-Trap G-25 column (800×g for 2 min). […] Preincubated solutions of enzyme (10 μM) and inhibitor (10 or 20 μM) were diluted 200-fold into a solution of PT855 (1 μM) at 37° C. Aliquots of this solution were withdrawn at various times and subjected to centrifugal gel filtration chromatography using PD SpinTrap™ G-25 columns. The fluorescence of the eluate was quantified, and the data were fit to a single exponential equation to obtain koff (FIG. 14, Tables 4 and 5).
Inhibitor Residence Time Measurements using a Spin Column Assay. […] Subsequently, 10 μL of the incubation mixture was diluted into 2 mL of the same buffer containing 1 μM of PT855, and 100 μL of this mixture was then aliquoted at different time points and loaded onto a PD SpinTrap™ G-25 column (Cytiva) that had been equilibrated with buffer prior to sample loading. […] The fluorescence intensities corresponding to loading diluted EI without the fluorescent competitor and loading the competitor alone were measured separately to determine the dynamic range and endpoint of the assay. […] Rates were calculated by fitting the change in fluorescence intensity over time to a one-phase association equation in GraphPad Prism.

[7] = test system: wild-type E. coli (K-12 MG1655); assay: Post-antibiotic effect (PAE) in wild-type E. coli; assay type: cell-based, Escherichia coli; details: for PAE (h) 4x, Wild-type: 4xMIC for 1 h; for PAE (h) 4x, Wild-type / PAE (h) 16x, Wild-type: 1:1000 dilution; for PAE (h) 16x, Wild-type: 16xMIC for 1 h; for PAE in wild-type E. coli: MIC multiple not stated or 4x and 16xMIC
Text: FIG. 4. Post-antibiotic effect of the ecLpxC inhibitors on wild-type and FabZ* E. coli. […] PAE data for wild-type E. coli are in panels (a) PT805, (c) PT810 and (e) CHIR-090, and for FabZ* E. coli in (b) PT805, (d) PT810 and (f) CHIR-090.
PAE data for wild-type E. coli are in panels (a) PT805, (c) PT810 and (e) CHIR-090, and for FabZ* E. coli in (b) PT805, (d) PT810 and (f) CHIR-090.

[8] = test system: E. coli strain (K-12, MG1655); assay: MIC by microbroth dilution, wild-type E. coli; assay type: cell-based, Escherichia coli; details: wild-type E. coli K-12 MG1655
[9] = test system: wild-type E. coli (K12 MG1655); assay: PAE in wild-type E. coli in the presence of sub-MIC azithromycin; assay type: cell-based, Escherichia coli; details: 16xMIC, 37° C.
Text: FIG. 6. Post-antibiotic effect in the presence of sub-MIC azithromycin.
The PAE measurements were repeated for wild-type E. coli in the presence of sub-MIC levels of the protein synthesis inhibitor azithromycin.

[10] = test system: FabZ*, hyperactive FabZ strain (L85P); assay: microbe, parasite or virus in culture; assay type: cell-based, Escherichia coli; details: for MIC: Escherichia coli, read-out: MIC (μM) FabZ*
FabZ* E. coli = assay type: cell-based, Escherichia coli; details: for PAE (h) 4x, FabZ*: 4xMIC for 1 h; for PAE (h) 4x, FabZ* / PAE (h) 16x, FabZ*: 1:1000 dilution; for PAE (h) 16x, FabZ*: 16xMIC for 1 h; for PAE in FabZ* E. coli: MIC multiple not stated or 1x-16xMIC
Text: FIG. 4. Post-antibiotic effect of the ecLpxC inhibitors on wild-type and FabZ* E. coli.
This included use of an E. coli strain (FabZ*) containing a hyperactive mutant of the fatty acid biosynthesis O-hydroxyacyl-ACP enzyme (FabZ), and determination of PAEs for wild-type E. coli in the presence of sub-MIC concentrations of macrolides.

wild-type E. coli = assay: MIC of azithromycin after pre-exposure of wild-type E. coli to 16xMIC inhibitor; assay type: cell-based, Escherichia coli; details: for MIC: Escherichia coli

Structure (SMILES)	PAE (h) 4x (P. aeruginosa PAO1 [1])	PAE (h) 8x (P. aeruginosa PAO1 [1])	PAE (h) 16x (P. aeruginosa PAO1 [1])	MIC [2]	reduction of the starting log CFU/mL of the bacterial culture (P. aeruginosa PAO1 [3])	MIC (P. aeruginosa PAO1 [4])	Ki (paLpxC [5])	tR (min) Fluorescence assay (paLpxC [5])	koff (paLpxC [5])	kon (paLpxC [5])	tR (min) (Spin column assay) (paLpxC [6])	PAE (h) 4x, Wild-type [7]	PAE (h) 16x, Wild-type [7]	PAE in wild-type E. coli [7]	PAE (h) 4x, FabZ* (FabZ* E. coli)	PAE (h) 16x, FabZ* (FabZ* E. coli)	PAE in FabZ* E. coli (FabZ* E. coli)	further results
CC(CCn1ccc(-c2ccccc2)cc1=O)(C(=O)NO)S(C)(=O)=O (racemic) [PT901, N-hydroxy-2-methyl-2-(methylsulfonyl)-4-(2-oxo-4-phenylpyridin-1(2H)-yl)butanamide]	0.7 h and 0.7 ± 0.1 h	1.1 ± 0.1 h	1.3 ± 0.1 h	0.2 µM (≈ 0.0729 µg/mL)	more than 3 logs	3.12 µM (≈ 1.14 µg/mL)	–	–	–	–	–	–	–	–	–	–	–	–
C=CCn1cc(-c2ccc(-c3ccn(CCC(C)(C(=O)NO)S(C)(=O)=O)c(=O)c3)cc2)nn1 (racemic) [PT907, 4-(4-(4-(1-allyl-1H-1,2,3-triazol-4-yl)phenyl)-2-oxopyridin-1(2H)-yl)-N-hydroxy-2-methyl-2-(methylsulfonyl)butanamide]	–	–	–	0.78 µM (≈ 0.368 µg/mL)	–	12.5 µM (≈ 5.89 µg/mL)	6.1 ± 5.7 pM	82.8 ± 26.0 min	0.00022 ± 7e-05 s⁻¹	52 ± 29.5 µM⁻¹ s⁻¹	146.5 ± 44.0 min	–	–	–	–	–	–	k (min^−1), spin-column assay (paLpxC [6]): 0.007 ± 0.002 min⁻¹
CC(CCn1ccc(-c2ccc(-c3cn(CC4CC4)nn3)cc2)cc1=O)(C(=O)NO)S(C)(=O)=O (racemic) [PT908, 4-(4-(4-(1-(cyclopropylmethyl)-1H-1,2,3-triazol-4-yl)phenyl)-2-oxopyridin-1(2H)-yl)-N-hydroxy-2-methyl-2-(methylsulfonyl)butanamide]	1.6 ± 0.1 h	2.2 ± 0.1 h	3.1 ± 0.1 h	0.4 µM (≈ 0.194 µg/mL)	more than 3 logs	3.12 µM (≈ 1.52 µg/mL)	10.2 ± 4.3 pM	66.9 ± 8.6 min and 67.0 ± 8.6 min	0.00025 ± 3e-05 s⁻¹	26.4 ± 6.3 µM⁻¹ s⁻¹	190.6 ± 92.0 min	–	–	–	–	–	–	–
CC(CCn1ccc(-c2ccc(-c3cn(Cc4ccc(F)cc4)nn3)cc2)cc1=O)(C(=O)NO)S(C)(=O)=O (racemic) [PT909, 4-(4-(4-(1-(4-fluorobenzyl)-1H-1,2,3-triazol-4-yl)phenyl)-2-oxopyridin-1(2H)-yl)-N-hydroxy-2-methyl-2-(methylsulfonyl)butanamide]	1.7 ± 0.1 h	2.5 ± 0.1 h	3.5 ± 0.2 h	0.05 µM (≈ 0.027 µg/mL)	more than 3 logs	1.56 µM (≈ 0.842 µg/mL)	8 ± 2.3 pM	68.2 ± 9.6 min	0.00025 ± 3e-05 s⁻¹	33.8 ± 13.6 µM⁻¹ s⁻¹	106 ± 25 min and 106.2 ± 25.0 min	–	–	–	–	–	–	k (min^−1), spin-column assay (paLpxC [6]): 0.009 ± 0.002 min⁻¹
Cn1nnnc1SCC1=C(C(=O)O)N2C(=O)[C@@H](NC(=O)[C@H](O)c3ccccc3)[C@H]2SC1 [Cefamandole]	–	–	–	–	–	–	–	–	–	–	–	0 h	0 h	failed to generate a PAE; also recorded: neither cefamandole nor trimethoprim showed a PAE	0 h	0 h	failed to generate a PAE; also recorded: neither cefamandole nor trimethoprim showed a PAE	MIC [8]: 6.25 µM (≈ 2.89 µg/mL); PAE (h) (sub-MIC AZ) 16x(0.2) ([9]; then media with 0.2xMIC azithromycin): 0 h; PAE (h) (sub-MIC AZ) 16x(0.4) ([9]; then media with 0.4xMIC azithromycin): 0 h; MIC (μM) FabZ* ([10]; hyperactive FabZ strain (L85P)): 1.6 µM (≈ 0.74 µg/mL)
CC[C@H]1OC(=O)[C@H](C)[C@@H](O[C@H]2C[C@@](C)(OC)[C@@H](O)[C@H](C)O2)[C@H](C)[C@@H](O[C@@H]2O[C@H](C)C[C@H](N(C)C)[C@H]2O)[C@](C)(O)C[C@@H](C)C(=O)[C@H](C)[C@@H](O)[C@]1(C)O [Erythromycin]	–	–	–	–	–	–	–	–	–	–	–	0.7 ± 0.1 h	1.4 ± 0.4 h	0.8 ± 0.05 h and 0.7 to 1.4 h	0.8 ± 0.2 h	1.5 ± 0.4 h	0.8 ± 0.05 h and 0.7 to 1.4 h	MIC ([8]; Escherichia coli): 50 µM (≈ 36.7 µg/mL); MIC [10]: 6.25 µM (≈ 4.59 µg/mL)
COc1cc(Cc2cnc(N)nc2N)cc(OC)c1OC [Trimethoprim]	–	–	–	–	–	–	–	–	–	–	–	0 h	0 h	failed to generate a PAE; also recorded: neither cefamandole nor trimethoprim showed a PAE	0 h	0 h	failed to generate a PAE; also recorded: neither cefamandole nor trimethoprim showed a PAE	MIC ([8]; Escherichia coli): 2.5 µM (≈ 0.726 µg/mL); MIC [10]: 2.5 µM (≈ 0.726 µg/mL)
CC[C@H]1OC(=O)[C@H](C)[C@@H](O[C@H]2C[C@@](C)(OC)[C@@H](O)[C@H](C)O2)[C@H](C)[C@@H](O[C@@H]2O[C@H](C)C[C@H](N(C)C)[C@H]2O)[C@](C)(O)C[C@@H](C)CN(C)[C@H](C)[C@@H](O)[C@]1(C)O [azithromycin]	–	–	–	–	–	–	–	–	–	–	–	–	–	–	–	–	–	MIC (wild-type E. coli; bacteria pre-exposed to 16xMIC ecLpxC inhibitor, read-out: MIC of azithromycin after pre-exposure to ecLpxC inhibitor): 3.25 µM; MIC (wild-type E. coli; no pre-exposure, read-out: MIC of azithromycin, control): 12 µM; MIC of azithromycin after pre-exposure to cefamandole (wild-type E. coli; bacteria pre-exposed to 16x cefamandole): 6.2 µM; fold decrease of azithromycin MIC after ecLpxC inhibitors (wild-type E. coli; pre-treatment with 16xMIC ecLpxC inhibitors): 4 fold; fold decrease of azithromycin MIC after cefamandole (wild-type E. coli; pre-treatment with cefamandole): 2 fold
